Assay results published in patent US7507742B2, “Spirocyclic derivatives” (Pfizer Inc., priority 2005, dated 2009).
pKi: −log10 of the molar value. Each block holds one molecule with its values, some of them ahead of it.

Key:
PDE7A = molecular target: T1, PDE7A (Homo sapiens, UniProt Q13946); assay: PDE7A inhibition, [3H]-cAMP scintillation proximity assay; assay type: biochemical; conditions: IC50 converted to Ki by Cheng-Prussof equation; cell lysate with full length enzyme, ~25 nM cAMP
T1 construct: carried out using cell lysate containing full length PDE7A and PDE7B enzyme; made in house
T1 sequence (Q13946 whole entry, species assumed): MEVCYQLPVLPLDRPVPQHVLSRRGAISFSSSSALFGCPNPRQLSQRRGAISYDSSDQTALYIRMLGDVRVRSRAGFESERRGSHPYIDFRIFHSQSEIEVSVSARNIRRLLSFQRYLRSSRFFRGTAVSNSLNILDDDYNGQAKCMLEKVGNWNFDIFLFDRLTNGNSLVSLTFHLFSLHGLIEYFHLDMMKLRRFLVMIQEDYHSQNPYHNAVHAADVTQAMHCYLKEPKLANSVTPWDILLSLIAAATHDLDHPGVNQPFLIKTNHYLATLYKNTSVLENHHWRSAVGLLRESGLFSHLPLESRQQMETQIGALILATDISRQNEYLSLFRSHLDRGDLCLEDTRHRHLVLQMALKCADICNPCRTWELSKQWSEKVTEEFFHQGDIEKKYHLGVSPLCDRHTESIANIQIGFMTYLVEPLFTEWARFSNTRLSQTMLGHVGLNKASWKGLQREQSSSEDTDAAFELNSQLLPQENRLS
Method: (§1) The ability of the compounds of formula (I) to inhibit PDE7 may be measured using the following assay protocol.
(§2) PDE7A and PDE7B enzymes catalyse the hydrolysis of 3′,5′-cyclic adenosine monophosphate (cAMP) to the 5′adenosine monophosphate, 5′AMP. In a multiwell plate; PDE enzyme, [^3H]-cAMP and the tested compounds, are incubated at room temperature. The incubation is terminated by addition of commercially available yttrium silicate scintillation proximity assay (SPA) beads containing zinc sulphate. The yttrium silicate beads preferentially bind linear nucleotides, thus the product of the enzyme reaction, [^3H]-5′AMP binds to the bead to produce a light signal, which is detected by a scintillation counter. The amount of signal produced directly correlates with the amount of product formed, and thus the activity of the enzyme. The maximum signal is obtained where enzyme and substrate are incubated alone. The background signal is measured from wells either containing no enzyme, or from wells containing a supra-maximal concentration of a known PDE7A/B inhibitor. Each purified batch of enzyme is quality controlled and its Km, Vmax and specific activity determined from kinetic studies before use in compound inhibition studies. The inhibition of the enzyme, by a test compound, is calculated relative to the maximum and background responses.
(§3) The optimisation of this assay has been carried out using cell lysate containing full length PDE7A and PDE7B enzyme. The concentration of the enzyme in this cell lysate sample is unknown, so the specific activity of the cell lysate is used as a measure to ensure that the same activity per well is used despite any batch-to-batch variation of concentration/activity.
(§4) PDE7 stock enzyme was prepared and kept at −20° C. in appropriately sized aliquots to reduce the number of freeze/thaw cycles. […] PDE7A is diluted to 1/8000 and PDE7B to 1/10000.
(§5) The final assay [cAMP] of ˜25 nM is required, so ˜50 nM [^3H]-cAMP was prepared.
(§6) Compound dilutions and “background” wells were made 30 stronger than required in the assay plate to allow for 1 μl compound to be diluted by 29 μl of other assay components (14 μl enzyme and 15 μl radioligand). Thus for a final assay concentration of 10 μM, the compound must be at 300 μM in the compound addition plate. 4 mM stocks of compound are supplied in 100% DMSO (or are made up @ 4 mM from powder submissions). This requires 1/13.33 dilution in DMSO to be made.
(§7) 1 μl test compound was transferred into a suitable multi-well assay plate immediately prior to reagent assay addition, 14 μl enzyme solution was then added to the assay plate, followed by 15 μl substrate solution (ie: final assay volume 30 μl, with a final screening compound concentration of […]). The plate was then sealed using a plate sealer and incubated at room temperature for 45 min on the plate shaker.
(§8) 30 μl Yttrium Silicate PDE4 SPA beads were then added, ensuring constant stirring of the beads to give even distribution in the assay plate. The plate was then sealed using a plate sealer and incubated at room temperature for 30 mins on the plate shaker. The beads were then allowed to settle for 30 mins, before spinning the plates for 1 min at 200 g.
(§9) The plates were then read on a suitable radioactive counter, for example NXT-TopCount™ (available from Perkin Elmer) using the relevant protocol (30 second read time per well).
(§10) The data was fitted to a sigmoid curve using a least squares algorithm.
(§11) The IC50 value was converted to a K^i value using the Cheng-Prussof equation: […]

PDE7B = molecular target: T2, PDE7B (Homo sapiens, UniProt Q9NP56); assay: PDE7B inhibition, [3H]-cAMP scintillation proximity assay; assay type: biochemical; conditions: IC50 converted to Ki by Cheng-Prussof equation; cell lysate with full length enzyme, ~25 nM cAMP
T2 construct: carried out using cell lysate containing full length PDE7A and PDE7B enzyme; made in house
T2 sequence (Q9NP56 whole entry, species assumed): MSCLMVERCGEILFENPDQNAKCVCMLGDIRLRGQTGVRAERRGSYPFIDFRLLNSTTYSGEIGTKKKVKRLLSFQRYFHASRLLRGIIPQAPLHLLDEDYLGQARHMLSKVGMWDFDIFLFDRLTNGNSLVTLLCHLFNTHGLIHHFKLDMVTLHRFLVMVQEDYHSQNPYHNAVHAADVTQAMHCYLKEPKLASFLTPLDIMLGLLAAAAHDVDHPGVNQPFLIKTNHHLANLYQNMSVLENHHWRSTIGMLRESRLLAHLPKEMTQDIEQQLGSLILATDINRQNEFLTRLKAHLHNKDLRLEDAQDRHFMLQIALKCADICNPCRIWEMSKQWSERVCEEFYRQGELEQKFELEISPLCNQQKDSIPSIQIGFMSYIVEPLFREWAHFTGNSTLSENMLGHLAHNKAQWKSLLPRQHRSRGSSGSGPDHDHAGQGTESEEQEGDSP
Method: as §1, §2, §3, §4, §5, §6, §7, §8, §9, §10, §11

[1] = Human hepatic metabolic stability in cryopreserved human hepatocytes; assay type: in vitro ADME; conditions: human, hepatocytes, pH 7.4
Method: (§12) The human hepatic metabolic stability of the compounds of Examples 1-7 of the present application were assessed in the model described below. The compound of Example 75 of WO 02/074754, 5′-carboxypropoxy-8′-chloro-spiro[cyclohexane-1-4′-(3′,4′-dihydro)quinazolin]-2′(1′H)-one (hereinafter “Compound A”), which is believed to represent the closest state of the art, was used as a comparison.
(§13) Hepatocytes are used as an in vitro system to monitor hepatic metabolism as these intact cells contain all the hepatic enzymes found in vivo, including phase I enzymes, such as cytochrome P450 oxidases (CYPs), aldehyde oxidases and monoamine oxidases (MAOs), and phase 11 enzymes, such as UDP-glucuronyltransferases and sulfotransferases. Cryopreserved human hepatocytes are prepared from 5 donors and suspended in Williams' E media. 4-(2-hydroxyethyl)-1-piperazineethanesulfonic acid (HEPES) is added to a final concentration of 50 mM and pH is adjusted to 7.4. Test substrates are dissolved in DMSO are added to the hepatocytes to give a substrate concentration of 1 μM, with a final DMSO concentration in the incubation below 0.1%. The experiments are performed in 96 or 384 well plates at 37° C., with a hepatocyte density of 0.5 million viable cells/mL. Sampling times of 10, 20, 30, 60, 90, and 120 minutes are used and analytical quantitation is by LC-MS/MS. The intrinsic clearance (apparent) is calculated using the formula: CLint, app=[−slope/0.5 M cells/mL]·1000 μL/mL=μL/min/M cells.
(§14) The human hepatic metabolic stability of the compounds of the present invention was tested according to the above protocol.

Human Hepatocytes = assay: as above; assay type: in vitro ADME; conditions: intrinsic clearance (apparent); 1 μM substrate, 0.5 million viable cells/mL, 37° C., 5 donors
Method: as §12, §13, §14

Rat IV pharmacokinetics = assay type: in vivo
Method: The pharmacokinetic properties of the compounds of Examples 1 and 2 were tested in the rat model described below. The compound of Example 75 of WO 02/074754, 5′-carboxypropoxy-8′-chloro-spiro[cyclohexane-1-4′-(3′,4′-dihydro)quinazolin]-2′(1′H)-one (hereinafter “Compound A”), which is believed to represent the closest state of the art, was used as a comparison.
The test compounds were administered to male rats (each rat receiving one compound), via the tail vein, at a dose of 1 mg/kg (0.08 mg/kg for the compound of Example 1). Blood samples were withdrawn from the rats via a surgically implanted jugular vein cannula at predetermined time-points after administration, and centrifuged to produce plasma. Plasma samples were analysed via a specific LC-MS/MS assay for the quantification of drug in plasma. The resulting plasma concentration-time curves were interrogated using a non-compartmental pharmacokinetic analysis in order to understand the disposition of each compound. The resulting output was subsequently used to estimate the likely human pharmacokinetic profile, as described below.
The mean, dose normalised, pharmacokinetic profiles of the compounds of Examples 1 and 2, as well as that of Compound A, following 1 mg/kg intravenous administration are shown in Table 6 below and in FIG. 1.

[2] = Fraction unbound in rat plasma; assay type: in vitro ADME; conditions: for fraction unbound: read-out: fup (fraction unbound in rat plasma)
[3] = Estimate of human pharmacokinetics by scaling rat unbound clearance; conditions: for Clu man: estimated human clearance scaled from rat: Clu rat*(BWman/BWrat)^0.75, 70 kg man, 0.25 kg rat; for half-life: human, T1/2=[ln(2)*Vd]/Cl, Vd in man assumed 0.2 L/kg, read-out: Estimated T1/2 (human half-life) (converted)
Description: (§15) Based on the above pharmacokinetic data in the rat, the likely human pharmacokinetics of the compounds of Examples 1 and 2, and that of Compound A, can be estimated as follows. • Scaling the unbound rat plasma clearance (Clu rat) observed following intravenous administration to estimate an unbound human plasma clearance (Clu man) using the following relationship: Clu man=Clu rat*(BWman/BWrat)^0.75 where BWman & BWrat are the average body weights of man (70 kg) and rat (0.25 kg) respectively, and units of clearance are in ml/min. • Converting Clu man to estimate total blood clearance in man (Clman): Clman=[(Clu man)*fup]/B:P where fup is the free fraction of unbound drug in plasma and B:P is the blood to plasma ratio in human blood. • An estimate of human half-life is presented for each compound, derived using the relationship: T1/2=[In(2)*Vd]/Cl where T1/2 is the estimated human half-life in hours, Vd is the volume of distribution in man (assumed to be 0.2 L/kg, due to the physicochemistry of this series) and Cl is the human clearance.

[4] = Free fraction of unbound drug in plasma used for the human estimate; assay type: in vitro ADME; conditions: Table 7, used to convert Clu man to Clman; for fraction unbound: human, plasma, read-out: fup (free fraction of unbound drug in plasma)
Description: as §15

[5] = Blood to plasma ratio in human blood; assay type: in vitro ADME; conditions: for blood plasma ratio: human, read-out: B:P (blood to plasma ratio)
Description: as §15

[6] = male rats, intravenous 1 mg/kg (0.08 mg/kg for Example 1)

pKi (PDE7B): 7.75
hepatocyte CLint at 1 μM [1]: < 5 µL/min/1e6 cells
SMILES: O=C1Nc2c(Cl)ccc(O[C@H]3C[C@H](C(=O)O)C3)c2C2(CCCCCC2)N1 [Example 6, Trans-3-[(8′-chloro-2′-oxo-2′,3′-dihydro-1′H-spiro[cycloheptyl-1,4′-quinazolin]-5′-yl)oxy]cyclobutanecarboxylic acid]

pKi (PDE7A): 8.72
pKi (PDE7B): 8.34
hepatocyte CLint at 1 μM [1]: < 5 µL/min/1e6 cells
Clu (unbound rat plasma clearance) (Rat IV pharmacokinetics; male, rat, in vivo, iv): 27 mL/min/kg
Clu rat (Rat IV pharmacokinetics; male, rat, in vivo, iv): 27 mL/min/kg
clearance (Rat IV pharmacokinetics; male, rat, in vivo, iv): 1.9 mL/min/kg
half-life (Rat IV pharmacokinetics; male, rat, in vivo, iv): 4 h
Vd (volume of distribution in rat) (Rat IV pharmacokinetics; rat, in vivo, iv): 0.6 L/kg
fraction unbound [2]: 0.07
Clu man [3]: 0.8 mL/min/kg
half-life [3]: 3 h
fraction unbound [4]: 0.07
blood plasma ratio [5]: 0.6
SMILES: O=C1Nc2c(Cl)ccc(O[C@H]3C[C@@H](C(=O)O)C3)c2C2(CCCCC2)N1 [Example 1, Cis-3-[(8′-chloro-2′-oxo-2′,3′-dihydro-1′H-spiro[cyclohexane-1,4′-quinazolin]-5′-yl)oxy]cyclobutanecarboxylic acid]

pKi (PDE7A): 8.51
pKi (PDE7B): 7.87
hepatocyte CLint at 1 μM [1]: < 5 µL/min/1e6 cells
Clu (unbound rat plasma clearance) (Rat IV pharmacokinetics; male, rat, in vivo, iv): 70 mL/min/kg
Clu rat (Rat IV pharmacokinetics; male, rat, in vivo, iv): 70 mL/min/kg
clearance (Rat IV pharmacokinetics; male, rat, in vivo, iv): 0.7 mL/min/kg
half-life (Rat IV pharmacokinetics; male, rat, in vivo, iv): 11 h
Vd (volume of distribution in rat) (Rat IV pharmacokinetics; rat, in vivo, iv): 0.7 L/kg
fraction unbound [2]: 0.1
Clu man [3]: 0.2 mL/min/kg
half-life [3]: 10 h
fraction unbound [4]: 0.01
blood plasma ratio [5]: 0.7
SMILES: O=C1Nc2c(Cl)ccc(O[C@H]3C[C@H](C(=O)O)C3)c2C2(CCCCC2)N1 [Example 2]

Second part, the molecule before the results:

SMILES: N#Cc1ccc(O[C@H]2C[C@H](C(=O)O)C2)c2c1NC(=O)NC21CCCCC1 [Example 4, trans-3-[(8′-cyano-2′-oxo-2′,3′-dihydro-1′H-spiro[cyclohexane-1,4′-quinazolin]-5′-yl)oxy]cyclobutanecarboxylic acid]
pKi (PDE7A): 7.94
pKi (PDE7B): 6.84
hepatocyte CLint at 1 μM [1]: < 5 µL/min/1e6 cells

SMILES: O=C1Nc2c(F)ccc(OCC3CC(C(=O)O)C3)c2C2(CCCCC2)N1 (centres unmarked) [Example 3, 3-[(8′-fluoro-2′-oxo-2′,3′-dihydro-1′H-spiro[cyclohexane-1,4′-quinazolin]-5′-yl)oxymethyl]cyclobutanecarboxylic acid]
pKi (PDE7A): 7.81
pKi (PDE7B): 6.97
hepatocyte CLint at 1 μM [1]: < 5 µL/min/1e6 cells

SMILES: O=C1Nc2c(F)ccc(OCC3(C(=O)O)CCC3)c2C2(CCCCC2)N1 [Example 5, 1-[(8′-fluoro-2′-oxo-2′,3′-dihydro-1′H-spiro[cyclohexane-1,4′-quinazolin]-5′-yl)oxymethyl]cyclobutanecarboxylic acid]
pKi (PDE7A): 6.56
pKi (PDE7B): 5.85
hepatocyte CLint at 1 μM [1]: < 5 µL/min/1e6 cells

SMILES: O=C(O)CCCOc1ccc(Cl)c2c1C1(CCCCC1)NC(=O)N2 [Compound A, 5′-carboxypropoxy-8′-chloro-spiro[cyclohexane-1-4′-(3′,4′-dihydro)quinazolin]-2′(1′H)-one, reference compound]
Human Hepatocytes CLint (Human Hepatocytes): 25 μL/min/M cells
Clu (unbound rat plasma clearance) (Rat IV pharmacokinetics; Clu = Cl/fup, male rats, intravenous): 156 mL/min/kg
T1/2 (half life) (Rat IV pharmacokinetics; [6]): <1 h
Vd (volume of distribution in rat) (Rat IV pharmacokinetics; [6]): 0.4 L/kg
Cl (rat clearance) (Rat IV pharmacokinetics; male rats, intravenous 1 mg/kg (0.08 mg/kg for Example 1), mean, dose normalised): 7 mL/min/kg
Clu rat (Rat IV pharmacokinetics; unbound rat plasma clearance after intravenous administration, as repeated in Table 7): 156 mL/min/kg
fup (fraction unbound in rat plasma) [2]: 0.045
Clu man [3]: 1.9 mL/min/kg
fup (free fraction of unbound drug in plasma) [4]: 0.03
B:P (blood to plasma ratio) [5]: 0.6

SMILES: O=C1Nc2c(Cl)ccc(O[C@H]3C[C@H](C(=O)O)C3)c2C2(CCCC2)N1 [Example 7, Trans-3-[(8′-chloro-2′-oxo-2′,3′-dihydro-1′H-spiro[cyclopentyl-1,4′-quinazolin]-5′-yl)oxy]cyclobutanecarboxylic acid]
pKi (PDE7A): 7.70
pKi (PDE7B): 6.85
hepatocyte CLint at 1 μM [1]: < 5 µL/min/1e6 cells
